# Read-outs that look alike come from different tables or passages of the source. Positions of bridges follow the written chain, without caps; N, C: chain ends. Non-standard residues stand in square brackets, D forms with d. Residues, ends and D or L forms follow the SMILES beside them. Groups on a side chain read outwards from the residue. *: point of attachment. X1 = O=C(O)CC[C@H](NC(=O)CN1CCN(CC(=O)O)CCN(CC(=O)O)CCN(CC(=O)O)CC1)C(=O)N[C@@H](CCCCNC(=O)CNC(=O)CCCc1ccc(F)cc1)C(=O)*; X2 = Cc1ccc(CCCC(=O)NCC(=O)NCCCC[C@H](NC(=O)[C@H](CCC(=O)O)NC(=O)CN2CCN(CC(=O)O)CCN(CC(=O)O)CCN(CC(=O)O)CC2)C(=O)*)cc1; 2Nal = N[C@@H](Cc1ccc2ccccc2c1)C(=O)O; Lys(iPr) = CC(C)NCCCC[C@H](N)C(=O)O
# Key:
# [1] = system: Daudi Burkitt's lymphoma xenografts; test: Biodistribution in Daudi tumor-bearing mice; assay type: in vivo; conditions: for Ratio Tumor: Blood / Ratio Tumor: Bone / Ratio Tumor: Liver / Ratio Tumor: Lung / Ratio Tumor: Muscle / Ratio Tumor: Spleen: Daudi tumor-bearing mice, 3 h; for Ratio Tumour:Blood / Ratio Tumour:Bone / Ratio Tumour:Liver / Ratio Tumour:Lung / Ratio Tumour:Muscle / Ratio Tumour:Spleen: Daudi xenograft bearing mice, 1 h
# Protocol: (§1) For Daudi, Z138, GRANTA519 and Jeko1 xenografts, male NOD.Cg-Rag1^tm1MomII2rg^tm1Wjl/SzJ (NRG) mice were subcutaneously inoculated on the left flank with 5×10^6 cells (100 μL; 1:1 ratio of PBS/Matrigel) and tumors were grown to a size of 200-500 mm^3. For PC-3 xenografts, male NOD.Cg-Rag1^tm1MomII2rg^tm1Wjl/SzJ (NRG) mice were subcutaneously inoculated on the left flank with 5×10^6 PC-3 cells (100 μL; 1:1 ratio of PBS/Matrigel) and tumors were grown to a size of 200-400 mm^3.
# (§2) The mice were euthanized via CO2 inhalation while anesthetized with isoflurane. Tissues were harvested, washed in PBS, blotted dry, weighed, and measured on a Hidex AMG Automatic Gamma Counter.
# [2] = Biodistribution in Daudi tumor-bearing mice; assay type: in vivo; conditions: male, NOD.Cg-Rag1^tm1MomII2rg^tm1Wjl/SzJ (NRG), mouse, iv, total radioactivity; for tissue uptake at 3 h: Daudi tumor-bearing mice; for tissue uptake at 1 h: Daudi xenograft bearing mice
# Protocol: as §1, §2
# [3] = Daudi tumor, read-out: Biodistribution Daudi (tumor)
# [4] = Daudi tumour, read-out: Biodistribution Daudi (tumour)
# [5] = adrenals, read-out: Biodistribution Adrenals
# [6] = blood, read-out: Biodistribution Blood
# [7] = bone, read-out: Biodistribution Bone
# [8] = brain, read-out: Biodistribution Brain
# [9] = fat, read-out: Biodistribution Fat
# [10] = heart, read-out: Biodistribution Heart
# [11] = intestine, read-out: Biodistribution Intestine
# [12] = kidney, read-out: Biodistribution Kidney
# [13] = liver, read-out: Biodistribution Liver
# [14] = lung, read-out: Biodistribution Lung
# [15] = muscle, read-out: Biodistribution Muscle
# [16] = pancreas, read-out: Biodistribution Pancreas
# [17] = spleen, read-out: Biodistribution Spleen
# [18] = stomach, read-out: Biodistribution Stomach
# [19] = testes, read-out: Biodistribution Testes
smiles,measurement,setting,value
"CC(C)NCCCC[C@@H]1NC(=O)[C@H](Cc2ccc(O)cc2)NC(=O)[C@H](Cc2ccccc2)NC(=O)CC[C@H](C(=O)N[C@@H](CCCCNC(C)C)C(=O)N[C@@H](CCCCNC(=O)[C@H](CCC(=O)O)NC(=O)[C@H](CCCCNC(=O)CNC(=O)CCCc2ccc(F)cc2)NC(=O)[C@H](CCC(=O)O)NC(=O)CN2CCN(CC(=O)O)CCN(CC(=O)O)CCN(CC(=O)O)CC2)C(N)=O)NC(=O)CNC(=O)[C@H](Cc2ccc3ccccc3c2)NC(=O)[C@@H](CCCNC(=N)N)NC1=O [[^68Ga]Ga-BL27, metal not drawn] (FY[Lys(iPr)][dR][2Nal]G[dE][Lys(iPr)]K([Glu-X1])-NH2; lactam N-7)",Ratio Tumor: Blood,[1],10.85
same,Ratio Tumor: Bone,[1],38.31
same,Ratio Tumor: Liver,[1],3.91
same,Ratio Tumor: Lung,[1],5.59
same,Ratio Tumor: Muscle,[1],83.68
same,Ratio Tumor: Spleen,[1],10.08
same,Ratio Tumour:Blood,[1],1.99
same,Ratio Tumour:Bone,[1],13.68
same,Ratio Tumour:Liver,[1],3.46
same,Ratio Tumour:Lung,[1],1.27
same,Ratio Tumour:Muscle,[1],21.47
same,Ratio Tumour:Spleen,[1],3.37
same,tissue uptake at 3 h,[2]; [3],10.4 %ID/g
same,tissue uptake at 1 h,[2]; [4],8.78 %ID/g
same,tissue uptake at 3 h,[2]; [5],0.58 %ID/g
same,tissue uptake at 1 h,[2]; [5],1.66 %ID/g
same,tissue uptake at 3 h,[2]; [6],0.95 %ID/g
same,tissue uptake at 1 h,[2]; [6],4.6 %ID/g
same,tissue uptake at 3 h,[2]; [7],0.27 %ID/g
same,tissue uptake at 1 h,[2]; [7],0.66 %ID/g
same,tissue uptake at 3 h,[2]; [8],0.03 %ID/g
same,tissue uptake at 1 h,[2]; [8],0.07 %ID/g
same,tissue uptake at 3 h,[2]; [9],0.09 %ID/g
same,tissue uptake at 1 h,[2]; [9],0.35 %ID/g
same,tissue uptake at 3 h,[2]; [10],0.32 %ID/g
same,tissue uptake at 1 h,[2]; [10],1.27 %ID/g
same,tissue uptake at 3 h,[2]; [11],0.36 %ID/g
same,tissue uptake at 1 h,[2]; [11],0.85 %ID/g
same,tissue uptake at 3 h,[2]; [12],4.77 %ID/g
same,tissue uptake at 1 h,[2]; [12],6.21 %ID/g
same,tissue uptake at 3 h,[2]; [13],2.64 %ID/g
same,tissue uptake at 1 h,[2]; [13],2.61 %ID/g
same,tissue uptake at 3 h,[2]; [14],2.1 %ID/g
same,tissue uptake at 1 h,[2]; [14],7.23 %ID/g
same,tissue uptake at 3 h,[2]; [15],0.13 %ID/g
same,tissue uptake at 1 h,[2]; [15],0.43 %ID/g
same,tissue uptake at 3 h,[2]; [16],0.26 %ID/g
same,tissue uptake at 1 h,[2]; [16],0.62 %ID/g
same,tissue uptake at 3 h,[2]; [17],1.06 %ID/g
same,tissue uptake at 1 h,[2]; [17],2.82 %ID/g
same,tissue uptake at 3 h,[2]; [18],0.12 %ID/g
same,tissue uptake at 1 h,[2]; [18],0.19 %ID/g
same,tissue uptake at 3 h,[2]; [19],0.31 %ID/g
same,tissue uptake at 1 h,[2]; [19],0.8 %ID/g
"Cc1ccc(CCCC(=O)NCC(=O)NCCCC[C@H](NC(=O)[C@H](CCC(=O)O)NC(=O)CN2CCN(CC(=O)O)CCN(CC(=O)O)CCN(CC(=O)O)CC2)C(=O)N[C@@H](CCC(=O)O)C(=O)NCCCC[C@H](NC(=O)[C@H](CCCCNC(C)C)NC(=O)[C@H]2CCC(=O)N[C@@H](Cc3ccccc3)C(=O)N[C@@H](Cc3ccc(O)cc3)C(=O)N[C@@H](CCCCNC(C)C)C(=O)N[C@H](CCCNC(=N)N)C(=O)N[C@@H](Cc3ccc4ccccc4c3)C(=O)NCC(=O)N2)C(N)=O)cc1 [[^68Ga]Ga-BL28, metal not drawn] (FY[Lys(iPr)][dR][2Nal]G[dE][Lys(iPr)]K([Glu-X2])-NH2; lactam N-7)",Ratio Tumor: Blood,[1],0.68
same,Ratio Tumor: Bone,[1],8.55
same,Ratio Tumor: Liver,[1],2.71
same,Ratio Tumor: Lung,[1],1.46
same,Ratio Tumor: Muscle,[1],10.49
same,Ratio Tumor: Spleen,[1],3.38
same,Ratio Tumour:Blood,[1],0.31
same,Ratio Tumour:Bone,[1],4.12
same,Ratio Tumour:Liver,[1],1.59
same,Ratio Tumour:Lung,[1],0.65
same,Ratio Tumour:Muscle,[1],4.82
same,Ratio Tumour:Spleen,[1],2.08
same,tissue uptake at 3 h,[2]; [3],7.82 %ID/g
same,tissue uptake at 1 h,[2]; [4],4.59 %ID/g
same,tissue uptake at 3 h,[2]; [5],2.46 %ID/g
same,tissue uptake at 1 h,[2]; [5],2.53 %ID/g
same,tissue uptake at 3 h,[2]; [6],11.6 %ID/g
same,tissue uptake at 1 h,[2]; [6],14.7 %ID/g
same,tissue uptake at 3 h,[2]; [7],0.94 %ID/g
same,tissue uptake at 1 h,[2]; [7],1.14 %ID/g
same,tissue uptake at 3 h,[2]; [8],0.17 %ID/g
same,tissue uptake at 1 h,[2]; [8],0.19 %ID/g
same,tissue uptake at 3 h,[2]; [9],0.56 %ID/g
same,tissue uptake at 1 h,[2]; [9],0.64 %ID/g
same,tissue uptake at 3 h,[2]; [10],2.29 %ID/g
same,tissue uptake at 1 h,[2]; [10],3.21 %ID/g
same,tissue uptake at 3 h,[2]; [11],1 %ID/g
same,tissue uptake at 1 h,[2]; [11],1.21 %ID/g
same,tissue uptake at 3 h,[2]; [12],4.76 %ID/g
same,tissue uptake at 1 h,[2]; [12],5.41 %ID/g
same,tissue uptake at 3 h,[2]; [13],2.92 %ID/g
same,tissue uptake at 1 h,[2]; [13],2.92 %ID/g
same,tissue uptake at 3 h,[2]; [14],5.35 %ID/g
same,tissue uptake at 1 h,[2]; [14],7.11 %ID/g
same,tissue uptake at 3 h,[2]; [15],0.76 %ID/g
same,tissue uptake at 1 h,[2]; [15],0.96 %ID/g
same,tissue uptake at 3 h,[2]; [16],1.21 %ID/g
same,tissue uptake at 1 h,[2]; [16],1.49 %ID/g
same,tissue uptake at 3 h,[2]; [17],2.34 %ID/g
same,tissue uptake at 1 h,[2]; [17],2.21 %ID/g
same,tissue uptake at 3 h,[2]; [18],0.38 %ID/g
same,tissue uptake at 1 h,[2]; [18],0.47 %ID/g
same,tissue uptake at 3 h,[2]; [19],2.05 %ID/g
same,tissue uptake at 1 h,[2]; [19],1.73 %ID/g

# — patent US20220218852A1, “NOVEL RADIOLABELLED CXCR4-TARGETING COMPOUNDS FOR DIAGNOSIS AND THERAPY” (PROVINCIAL HEALTH SERVICES AUTHORITY, priority 2019, published 2022)
